We go through five compounds from ChEMBL document CHEMBL1126395, “The synthesis of conformationally-restricted diacyl glycerol analogues” (1992).

Experiment [1] addresses Protein kinase C (PKC) (Rattus norvegicus) (UniProt P05696+P68403+P09216+P63319+P09215+Q64617+Q9WTQ0+P09217). The experiment is described as follows: Antagonist activity against protein Kinase C. The class given is functional.
Experiment [2] has as its system HL-60. The experiment is described as follows: Compound was tested for the inhibition of the growth of HL60 cells at a concentration 10E-4 M; NS no significant affect is observed. It is filed as functional, cell-based. The settings on record: Homo sapiens.
Experiment [3] has as its system HL-60. The experiment is described as follows: Compound was tested for the inhibition of the growth of HL60 cells at a concentration 10E-4 M; reduction of growth was observed. The settings on record: Homo sapiens. The class given is functional.

The structures appear in SMILES notation. The source made the active and inactive calls. The rule behind the calls is not given here.

`CCCCCCCOC(=O)O[C@@H]1[C@@H](CO)OC(=O)[C@@H]1OC(=O)OCCCCCCC`: the result in experiment [1] was inactive.

As to `CCCCCCCOC(=O)O[C@H]1OC(=O)C[C@@H]1O`, the outcome in experiment [2] was inactive.

Turning to `CCCCCCCOC(=O)O[C@H]1OC(=O)[C@H](O)[C@@H]1O`, the result in experiment [1] was inactive. Still for that read-out and setting: for `CCCCCCCOC(=O)O[C@H]1OC(=O)[C@H](O)[C@@H]1OC(=O)OCCCCCCC` the value was “inactive”. In the case of `CCCCCCCOC(=O)O[C@H]1CC(=O)O[C@@H]1CO`, the result in experiment [1] was inactive. This compound also displayed an inhibition at 100 µM in experiment [3] of 20%.

In general, inhibition refers to the share of the control response that was lost under treatment.
